Source: patent publication US7683176B2, “Triazolyl pyridyl benzenesulfonamides” (ChemoCentryx, Inc., priority 2006, dated 2010)

molecular target: T1, CCR2 (Homo sapiens, UniProt P41597); experiment: CCR2 activity in one of the chemotaxis, binding or calcium mobilization assays; type: cell-based; details: binding or calcium mobilization assays (THP-1 cells, MCP-1)
T1 construct: chemokine expressing cells (such as THP-1 cells for CCR2 assay or MOLT-4 cells for CCR9 assay); host or cells: THP-1
T1 sequence (P41597 1-360 isoform P41597-2): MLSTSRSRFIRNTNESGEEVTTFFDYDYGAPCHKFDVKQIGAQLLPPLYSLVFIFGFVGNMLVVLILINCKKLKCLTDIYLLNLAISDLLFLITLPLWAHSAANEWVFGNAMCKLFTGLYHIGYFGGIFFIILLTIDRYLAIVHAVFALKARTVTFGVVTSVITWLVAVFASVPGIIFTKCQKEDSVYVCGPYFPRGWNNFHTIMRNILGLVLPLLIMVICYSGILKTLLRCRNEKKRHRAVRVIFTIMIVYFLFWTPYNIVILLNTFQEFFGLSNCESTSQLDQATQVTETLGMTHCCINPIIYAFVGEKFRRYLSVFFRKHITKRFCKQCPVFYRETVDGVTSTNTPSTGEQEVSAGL
Protocol: THP-1 cells and MOLT-4 cells were obtained from the American Type Culture Collection (Manassas, Va.) and cultured in RPMI tissue culture medium supplemented with 10% fetal calf serum (FCS) in a humidified 5% CO2 incubator at 37° C. Recombinant human chemokine proteins MCP-1 and TECK were obtained from R&D Systems (Minneapolis, Minn.). ^125I-labeled MCP-1 protein was obtained from Amersham (Piscataway, N.J.). ChemoTX® chemotaxis microchambers were purchased from Neuro Probe (Gaithersburg, Md.). CyQUANT® cell proliferation kits were purchased from Molecular Probes (Eugene, Oreg.). Calcium indicator dye Fluo-4 AM was purchased from Molecular Devices (Mountain View, Calif.).
Conventional migration assay was used to determine the efficacy of potential receptor antagonists in blocking migration mediated through chemokines (such as CCR2 or CCR9). This assay was routinely performed using the ChemoTX® microchamber system with a 5-μm pore-sized polycarbonate membrane. To begin such an assay, chemokine expressing cells (such as THP-1 cells for CCR2 assay or MOLT-4 cells for CCR9 assay) were harvested by centrifugation of cell suspension at 1000 RPM on a GS-6R Beckman centrifuge. The cell pellet was resuspended in chemotaxis buffer (HBSS with 0.1% BSA) at 10×10^6 cells/mL for CCR2 assay (5×10^6 cells/mL for CCR9 assay). Test compounds at desired concentrations were prepared from 10 mM stock solutions by serial dilutions in chemotaxis buffer. An equal volume of cells and compounds were mixed and incubated at room temperature for 15 minutes. Afterwards, 20 μL of the mixture was transferred onto the porous membrane of a migration microchamber, with 29 μL of chemokine ligand (0.1 nM chemokine MCP-1 protein for CCR2 assay or […] chemokine TECK protein for CCR9 assay) placed at the lower chamber. Following an incubation at 37° C. (90-minute for CCR2; 150-minute for CCR9), during which cells migrated […] the chemokine gradient, the assay was terminated by removing the cell drops from atop the filter. To quantify cells migrated across the membrane, 5 μL of 7× CyQUANT® solution was added to each well in the lower chamber, and the fluorescence signal measured on a Spectrafluor Plus fluorescence plate reader (TECAN, Durham, N.C.). The degree of inhibition was determined by comparing migration signals between compound-treated and untreated cells. IC50 calculation was further performed by non-linear squares regression analysis using Graphpad Prism (Graphpad Software, San Diego, Calif.).
Calcium flux assay measures an increase in intracellular calcium following ligand-induced receptor activation. In the screen of chemokine antagonists, it was used as a secondary assay carried out on a FLIPR® machine (Molecular Devices, Mountain View, Calif.). To begin an assay, chemokine expressing cells (such as THP-1 cells for CCR2 assay or MOLT-4 cells for CCR9 assay) were harvested by centrifugation of cell suspension, and resuspended to 1.5×10^6 cells/mL in HBSS (with 1% fetal calf serum). Cells were then labeled with a calcium indicator dye Fluo-4 AM for 45 minutes at 37° C. with gentle shaking. Following incubation, cells were pelletted, washed once with HBSS and resuspended in the same buffer at a density of 1.6×10^6 cells/mL. One hundred microliters of labeled cells were mixed with 10 μL of test compound at the appropriate concentrations on an assay plate. Chemokine protein (MCP-1 at a final concentration of 0.1 nM for CCR2 assay or TECK at a final concentration of 25 nM for CCR9 assay) to activate the receptor. The degree of inhibition was determined by comparing calcium signals between compound-treated and untreated cells. IC50 calculations were further performed by non-linear squares regression analysis using Graphpad Prism (Graphpad Software, San Diego, Calif.).
Ligand binding assay was used to determine the ability of potential CCR2 antagonists to block the interaction between CCR2 and its ligand MCP-1. […]

Compound	IC50 [nM]
CCOC(=O)c1nnc(-c2ncc(Cl)cc2NS(=O)(=O)c2ccc(Cl)c(C(F)(F)F)c2)n1C(C)C	< 1000
CC(C)n1c(C(N)=O)nnc1-c1ncc(Cl)cc1NS(=O)(=O)c1ccc(Cl)c(C(F)(F)F)c1	< 1000
CC(C)n1c(C(=O)N(C)C)nnc1-c1ncc(Cl)cc1NS(=O)(=O)c1ccc(Cl)c(C(F)(F)F)c1	< 1000
C[C@@H](CO)n1cnnc1-c1ncc(Cl)cc1NS(=O)(=O)c1ccc(Cl)c(C(F)(F)F)c1	< 1000
CC(C)n1c(Br)nnc1-c1ncc(Cl)cc1NS(=O)(=O)c1ccc(Cl)c(C(F)(F)F)c1	< 1000
COc1ccc(F)cc1-n1cnnc1-c1ncc(Cl)cc1NS(=O)(=O)c1ccc(Cl)c(C(F)(F)F)c1	< 1000
Cc1cnc(-c2nncn2-c2cc[nH]n2)c(NS(=O)(=O)c2ccc(Cl)c(C(F)(F)F)c2)c1	< 1000
Cc1ccccc1-n1cnnc1-c1ncc(Cl)cc1NS(=O)(=O)c1ccc(Cl)c(C(F)(F)F)c1	< 1000
O=S(=O)(Nc1cc(Cl)cnc1-c1nncn1-c1n[nH]cc1Br)c1ccc(Cl)c(C(F)(F)F)c1	< 1000
O=S(=O)(Nc1cc(Cl)cnc1-c1nncn1-c1cn[nH]c1)c1ccc(Cl)c(C(F)(F)F)c1	< 1000
Cc1n[nH]cc1-n1cnnc1-c1ncc(Cl)cc1NS(=O)(=O)c1ccc(Cl)c(C(F)(F)F)c1	< 1000
O=S(=O)(Nc1cc(Cl)cnc1-c1nnc(C(F)(F)F)n1-c1cc[nH]n1)c1ccc(Cl)c(C(F)(F)F)c1	< 1000
Cc1c[nH]nc1-n1cnnc1-c1ncc(Cl)cc1NS(=O)(=O)c1ccc(Cl)c(C(F)(F)F)c1	< 1000
Cc1nnc(-c2ncc(Cl)cc2NS(=O)(=O)c2ccc(Cl)c(C(F)(F)F)c2)n1-c1n[nH]cc1Br	< 1000
CC(C)n1c(N)nnc1-c1ncc(Cl)cc1NS(=O)(=O)c1ccc(Cl)c(C(F)(F)F)c1	< 1000
O=S(=O)(Nc1cc(Cl)cnc1-c1nnc(C2CC2)n1-c1cc[nH]n1)c1ccc(Cl)c(C(F)(F)F)c1	< 1000
O=S(=O)(Nc1cc(Cl)cnc1-c1nncn1-c1cc[nH]n1)c1ccc(Cl)c(Cl)c1	< 1000
O=S(=O)(Nc1cc(Cl)cnc1-c1nncn1-c1ccon1)c1ccc(Cl)c(Cl)c1	< 1000

Compound	IC50 [nM]
O=S(=O)(Nc1cc(Cl)cnc1-c1nncn1-c1n[nH]cc1Br)c1ccc(Cl)c(Cl)c1	< 1000
O=S(=O)(Nc1cc(Cl)cnc1-c1nnc(Br)n1-c1n[nH]cc1Br)c1ccc(Cl)c(Cl)c1	< 1000
O=S(=O)(Nc1cc(Br)cnc1-c1nncn1-c1cc[nH]n1)c1ccc(Cl)c(C(F)(F)F)c1	< 1000
O=S(=O)(Nc1cc(Br)cnc1-c1nncn1-c1ccon1)c1ccc(Cl)c(C(F)(F)F)c1	< 1000
NC(=O)c1nnc(-c2ncc(Cl)cc2NS(=O)(=O)c2ccc(Cl)c(Cl)c2)n1-c1ccon1	< 1000
Cn1nccc1-n1cnnc1-c1ncc(Cl)cc1NS(=O)(=O)c1ccc(Cl)c(C(F)(F)F)c1	< 1000
O=S(=O)(Nc1cc(Cl)cnc1-c1nncn1C1CCNC1)c1ccc(Cl)c(C(F)(F)F)c1 (stereo not drawn)	< 1000
CCCn1cnnc1-c1ncc(Cl)cc1NS(=O)(=O)c1ccc(Cl)c(C(F)(F)F)c1	< 1000
CO[C@H]1CNC[C@@H]1n1cnnc1-c1ncc(Cl)cc1NS(=O)(=O)c1ccc(Cl)c(C(F)(F)F)c1	< 1000
O=S(=O)(Nc1cc(Cl)cnc1-c1nncn1C1CCNCC1)c1ccc(Cl)c(C(F)(F)F)c1	< 1000
CC(C)n1c(Cl)nnc1-c1ncc(Cl)cc1NS(=O)(=O)c1ccc(Cl)c(C(F)(F)F)c1	< 1000
CC(CCO)n1cnnc1-c1ncc(Cl)cc1NS(=O)(=O)c1ccc(Cl)c(C(F)(F)F)c1 (stereo not drawn)	< 1000
CC(CN(C)C)n1cnnc1-c1ncc(Cl)cc1NS(=O)(=O)c1ccc(Cl)c(C(F)(F)F)c1 (stereo not drawn)	< 1000
O=S(=O)(Nc1cc(Cl)cnc1-c1nnc(C(F)(F)F)n1-c1ccccc1)c1ccc(Cl)c(C(F)(F)F)c1	< 1000
CC(C)n1c(CO)nnc1-c1ncc(Cl)cc1NS(=O)(=O)c1ccc(Cl)c(C(F)(F)F)c1	< 1000
CC(C)n1c(CN(C)C)nnc1-c1ncc(Cl)cc1NS(=O)(=O)c1ccc(Cl)c(C(F)(F)F)c1	< 1000
Cc1cnc(-c2nnc(C(N)=O)n2-c2ccccc2)c(NS(=O)(=O)c2ccc(Cl)c(C(F)(F)F)c2)c1	< 1000

The next lines start with the values.

IC50 [nM]	Compound
< 1000	CC(C)c1nnc(-c2ncc(Cl)cc2NS(=O)(=O)c2ccc(Cl)c(C(F)(F)F)c2)n1-c1cc[nH]n1
< 1000	CCOC(=O)c1nnc(-c2ncc(Cl)cc2NS(=O)(=O)c2ccc(Cl)c(C(F)(F)F)c2)n1-c1ccon1
< 1000	NC(=O)c1nnc(-c2ncc(Cl)cc2NS(=O)(=O)c2ccc(Cl)c(C(F)(F)F)c2)n1-c1ccon1
< 1000	CN(C)C(=O)c1nnc(-c2ncc(Cl)cc2NS(=O)(=O)c2ccc(Cl)c(C(F)(F)F)c2)n1-c1ccon1
< 1000	COCc1nnc(-c2ncc(Cl)cc2NS(=O)(=O)c2ccc(Cl)c(C(F)(F)F)c2)n1-c1cc[nH]n1
< 1000	COCc1nnc(-c2ncc(Cl)cc2NS(=O)(=O)c2ccc(Cl)c(C(F)(F)F)c2)n1-c1ccon1
< 1000	CCNC(=O)c1nnc(-c2ncc(Cl)cc2NS(=O)(=O)c2ccc(Cl)c(C(F)(F)F)c2)n1-c1ccon1
< 1000	O=C(c1nnc(-c2ncc(Cl)cc2NS(=O)(=O)c2ccc(Cl)c(C(F)(F)F)c2)n1-c1ccon1)N1CCCC1
< 1000	CC(C)NC(=O)c1nnc(-c2ncc(Cl)cc2NS(=O)(=O)c2ccc(Cl)c(C(F)(F)F)c2)n1-c1ccon1
< 1000	CC(C)(C)c1nnc(-c2ncc(Cl)cc2NS(=O)(=O)c2ccc(Cl)c(C(F)(F)F)c2)n1-c1cc[nH]n1
< 1000	O=S(=O)(Nc1cc(Cl)cnc1-c1nnc(Br)n1-c1ccon1)c1ccc(Cl)c(C(F)(F)F)c1
< 1000	CCN(C)C(=O)c1nnc(-c2ncc(Cl)cc2NS(=O)(=O)c2ccc(Cl)c(C(F)(F)F)c2)n1-c1ccon1
< 1000	Cc1cnc(-c2nnc(C(N)=O)n2-c2ccon2)c(NS(=O)(=O)c2ccc(Cl)c(C(F)(F)F)c2)c1
< 1000	O=S(=O)(Nc1cc(Cl)cnc1-c1nnc(CO)n1-c1ccon1)c1ccc(Cl)c(C(F)(F)F)c1
< 1000	O=C(c1nnc(-c2ncc(Cl)cc2NS(=O)(=O)c2ccc(Cl)c(C(F)(F)F)c2)n1-c1ccon1)N1CCOCC1
< 1000	Cc1ccc(S(=O)(=O)Nc2cc(Cl)cnc2-c2nnc(C(N)=O)n2-c2ccon2)cc1C(F)(F)F
